Consider four compounds from ChEMBL document CHEMBL1201862, “PubChem BioAssay data set” (2004).

The target of test [1] is T1, Caspase-6 (Homo sapiens, UniProt P55212).
T1 sequence (P55212 whole entry): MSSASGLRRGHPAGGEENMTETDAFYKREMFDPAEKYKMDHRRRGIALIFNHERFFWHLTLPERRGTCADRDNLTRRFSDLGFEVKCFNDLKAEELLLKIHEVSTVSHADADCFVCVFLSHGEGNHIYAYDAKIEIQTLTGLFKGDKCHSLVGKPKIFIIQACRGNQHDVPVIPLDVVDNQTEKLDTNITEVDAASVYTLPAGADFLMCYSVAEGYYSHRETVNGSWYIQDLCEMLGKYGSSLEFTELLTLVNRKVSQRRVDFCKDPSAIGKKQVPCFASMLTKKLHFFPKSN
The experiment in a line: inhibition of CASP6 peptide cleavage – biochemical, VEID-R110 fluorescence, cherry-pick, dose response (AID 720632).

In test [2] the target is T2, Caspase-3 (Homo sapiens, UniProt P42574).
T2 sequence (P42574 whole entry): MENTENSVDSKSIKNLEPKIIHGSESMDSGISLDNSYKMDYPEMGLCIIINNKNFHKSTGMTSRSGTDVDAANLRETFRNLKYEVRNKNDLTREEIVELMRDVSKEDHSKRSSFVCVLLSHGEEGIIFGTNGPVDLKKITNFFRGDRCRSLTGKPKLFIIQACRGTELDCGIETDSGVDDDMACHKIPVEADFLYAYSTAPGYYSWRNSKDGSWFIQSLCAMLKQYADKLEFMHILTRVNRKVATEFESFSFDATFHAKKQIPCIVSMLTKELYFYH
The experiment in a line: human caspase-3 protease activity blockade – biochemical, fluorescence, cherry-picked samples, selectivity assay for caspase-6 allosteric inhibitor project, dose response (AID 743291).

Test [3] has as its target T3, Caspase-7 (Homo sapiens, UniProt P55210).
T3 sequence (P55210 whole entry): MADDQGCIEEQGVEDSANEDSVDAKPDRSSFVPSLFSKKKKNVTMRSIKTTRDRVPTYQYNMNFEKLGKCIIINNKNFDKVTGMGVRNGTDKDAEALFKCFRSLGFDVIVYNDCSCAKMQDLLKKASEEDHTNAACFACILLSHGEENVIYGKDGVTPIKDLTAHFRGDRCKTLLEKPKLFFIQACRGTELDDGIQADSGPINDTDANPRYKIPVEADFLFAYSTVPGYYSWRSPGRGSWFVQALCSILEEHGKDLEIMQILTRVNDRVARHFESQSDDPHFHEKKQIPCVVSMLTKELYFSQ
The test can be described thus: caspase-7 enzyme inhibition, selectivity check – biochemical, DEVD-R110 fluorescence, cherry-pick, selectivity assay for caspase-6 inhibitor project, dose response (AID 743295). The test is classed as functional.

A short description of test [4]: fluconazole-exposed Candida albicans growth modulators – fluorescence, retest, confirmation (AID 2467). Type of test: functional, cell-based.
A short description of test [5]: NIH-3T3 fibroblast cytotoxicity, dose response, cytotoxicity control, cell-based, fluorescence, Alamar Blue, secondary assay (AID 2327).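 Also: NIH-3T3 mouse fibroblasts cultured with fluconazole at 8 µg/mL.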 Type of test: functional. For orientation: Alamar Blue is a resazurin reagent that responds to reducing activity.
The subject of test [6] is INS1. The experiment in a line: INS-1E survival protection against cytokine death – cell-based, luminescence, retest, dose response (AID 449756).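 Also: cell death triggered by IL-1 beta plus TNF-alpha plus IFN-gamma mixture; protective hits raise ATP signal compared with cytokine alone wells.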 Type of test: functional. The settings on record: Rattus norvegicus.
Test [7] concerns the target T4, Replicative DNA helicase DnaB (Mycobacterium tuberculosis, UniProt P9WMR3).
T4 sequence (P9WMR3 whole entry): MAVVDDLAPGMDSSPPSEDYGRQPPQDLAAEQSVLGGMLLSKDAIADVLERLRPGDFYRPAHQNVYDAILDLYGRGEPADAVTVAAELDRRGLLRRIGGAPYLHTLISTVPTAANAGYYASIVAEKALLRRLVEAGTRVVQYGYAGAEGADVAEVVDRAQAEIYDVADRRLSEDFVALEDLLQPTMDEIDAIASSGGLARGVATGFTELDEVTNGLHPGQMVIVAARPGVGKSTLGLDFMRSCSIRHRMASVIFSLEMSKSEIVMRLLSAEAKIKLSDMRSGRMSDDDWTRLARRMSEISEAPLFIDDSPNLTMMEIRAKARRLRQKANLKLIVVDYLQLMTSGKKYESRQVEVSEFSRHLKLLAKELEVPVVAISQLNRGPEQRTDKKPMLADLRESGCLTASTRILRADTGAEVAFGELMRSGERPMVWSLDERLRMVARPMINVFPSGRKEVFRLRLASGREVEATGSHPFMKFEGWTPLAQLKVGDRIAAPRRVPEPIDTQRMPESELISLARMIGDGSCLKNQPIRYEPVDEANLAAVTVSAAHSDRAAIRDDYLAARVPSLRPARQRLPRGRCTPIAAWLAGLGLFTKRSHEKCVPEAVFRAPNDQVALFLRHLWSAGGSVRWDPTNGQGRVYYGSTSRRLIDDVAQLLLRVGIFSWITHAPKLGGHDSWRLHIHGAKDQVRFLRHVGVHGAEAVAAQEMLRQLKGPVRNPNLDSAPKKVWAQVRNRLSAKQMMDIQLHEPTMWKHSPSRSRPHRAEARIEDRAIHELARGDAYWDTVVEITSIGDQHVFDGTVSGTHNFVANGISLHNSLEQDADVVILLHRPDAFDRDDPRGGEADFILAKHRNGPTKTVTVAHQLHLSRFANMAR
The test can be described thus: DnaB intein splicing inhibitors, dose response, biochemical, cell-free fluorescence (AID 449749). Type of test: functional.

Test [8] deals with T5, Protein RecA (Mycobacterium tuberculosis, UniProt P9WHJ3).
T5 sequence (P9WHJ3 whole entry): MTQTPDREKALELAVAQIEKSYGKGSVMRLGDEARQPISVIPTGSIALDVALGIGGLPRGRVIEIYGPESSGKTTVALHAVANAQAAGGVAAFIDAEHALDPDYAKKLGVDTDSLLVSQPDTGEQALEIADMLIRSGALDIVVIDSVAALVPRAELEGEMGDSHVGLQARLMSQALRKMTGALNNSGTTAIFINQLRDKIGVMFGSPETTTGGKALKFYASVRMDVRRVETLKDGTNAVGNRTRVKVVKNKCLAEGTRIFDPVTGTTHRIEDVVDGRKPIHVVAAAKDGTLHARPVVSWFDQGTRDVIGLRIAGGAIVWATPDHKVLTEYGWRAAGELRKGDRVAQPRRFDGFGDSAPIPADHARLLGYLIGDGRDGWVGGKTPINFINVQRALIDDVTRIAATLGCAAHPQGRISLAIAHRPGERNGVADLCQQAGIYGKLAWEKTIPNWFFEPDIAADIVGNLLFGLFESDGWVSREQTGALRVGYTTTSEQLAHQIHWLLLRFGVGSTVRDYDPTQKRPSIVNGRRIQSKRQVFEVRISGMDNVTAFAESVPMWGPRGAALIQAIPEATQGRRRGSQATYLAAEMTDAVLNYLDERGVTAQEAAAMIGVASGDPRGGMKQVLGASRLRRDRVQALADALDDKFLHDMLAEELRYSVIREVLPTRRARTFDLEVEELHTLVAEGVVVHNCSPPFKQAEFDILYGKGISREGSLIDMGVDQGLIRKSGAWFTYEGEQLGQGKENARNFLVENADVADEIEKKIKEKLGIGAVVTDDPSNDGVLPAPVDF
The test can be described thus: Fluorescence Cell-Free Homogeneous Dose Retest to Identify Inhibitors of RecA-Intein Splicing Activity. [Related pubchem assays (depositor defined):AID2097, AID2223, AID489010, AID492950]. Type of test: functional.

A word on the AC50: it is the concentration at which the activity in the assay is half-maximal. By EC50 is commonly meant the concentration needed to bring the measured effect to its halfway point.

Active and inactive are the calls of the source.

On to `COc1ccc(NS(=O)(=O)c2ccc3c(c2)[C@H]2C=CC[C@H]2[C@@H](c2ccc(C(=O)O)cc2)N3)cc1`, for which the AC50 in test [1] is 4.43 µM (active); in test [2], 18.2 µM (active); in test [3] it was > 70 µM (inactive).

As for `CCC(=O)NC(c1ccc(OC)cc1)c1cc(Cl)c2cccnc2c1O` (stereo unspecified), the 50% effective concentration (EC50) is 0.769 µM (active) in test [4] and 12.6 µM (inconclusive) in test [5]. Besides, the AC50 in test [6] was 1.08 µM (active).

For `Cn1nc(-c2ccccn2)nc2c(=O)n(C)c(=O)nc1-2`, the AC50 in test [7] is 0.573 µM (active); in test [1] it was 0.219 µM (active); in test [2] it was 6.73 µM (active); in test [3], 0.371 µM (active); in test [6], 1.92 µM (active). Also, the concentration giving a half-maximal response (EC50) in test [8] was 0.0191 µM (active).

In the case of `CCCCCCCCCCn1c2c(c(=N)c3c1CCC3)CCC2`, the EC50 in test [4] is 0.779 µM (active); in test [8], 1.83 µM (active); in test [5] it was 26.1 µM (active). For the same compound, the concentration at half-maximal activity (AC50) in test [7] is 2.81 µM (active).
